This assay has as its target T1, Human sEH (hsEH) (Homo sapiens, UniProt P34913).
T1 construct: purchased Cayman Chemicals
T1 sequence (P34913 1-555): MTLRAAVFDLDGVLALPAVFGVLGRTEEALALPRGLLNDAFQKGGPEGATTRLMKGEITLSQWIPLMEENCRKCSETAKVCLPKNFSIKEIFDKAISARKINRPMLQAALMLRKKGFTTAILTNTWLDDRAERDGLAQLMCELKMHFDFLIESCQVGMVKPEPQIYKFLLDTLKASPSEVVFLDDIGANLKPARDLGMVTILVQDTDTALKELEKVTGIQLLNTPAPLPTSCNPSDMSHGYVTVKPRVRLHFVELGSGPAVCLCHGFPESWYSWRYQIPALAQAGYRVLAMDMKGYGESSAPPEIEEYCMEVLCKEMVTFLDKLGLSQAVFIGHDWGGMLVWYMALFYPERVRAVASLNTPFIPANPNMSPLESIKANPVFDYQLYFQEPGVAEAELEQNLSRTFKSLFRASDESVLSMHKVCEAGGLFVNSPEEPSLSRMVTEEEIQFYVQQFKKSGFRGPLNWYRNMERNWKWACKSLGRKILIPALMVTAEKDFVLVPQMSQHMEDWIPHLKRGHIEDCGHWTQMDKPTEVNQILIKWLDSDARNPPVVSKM
Description: fluorescence-based sEH biochemical inhibition assay (PHOME substrate). The settings on record: Table 1; hsEH 5 nM, PHOME 50 μM, 30° C. As to the method:
The benzimidazole-based compounds synthesized according to Example 1 were measured for activity. Using a fluorescence-based sEH biochemical inhibition assay, the IC50 value was measured for each benzimidazole-based compound. Human sEH (hsEH) and its substrate PHOME were purchased from Cayman Chemicals. IC50 values of hsEH inhibitors were determined by fluorescence. IC50 is defined as the concentration of the inhibitor that blocks 50% of the enzymatic activity. To a 96-well plate containing 10 μL enzyme (5 nM in water), 60 μL of H2O and 10 μL BisTris-HCl buffer (25 mM, pH 7.0) were added inhibitors with different concentrations. The mixture was incubated for 5 min at 30° C. prior to addition of 10 μL of PHOME substrate (50 μM). Fluorescence were measured at 30° C. with an excitation wavelength of 330 nm and an emission wavelength of 465 nm using a BioTek H1 plate reader. The IC50 values were calculated by non-linear regression fitting. The curve was generated from at least three separate runs, each in duplicates. Results are given as means and standard deviations. In Table 1, an IC50 value less than or equal to 1 μM is indicated as an “A.” an IC50 value from greater than 1 μM to less than 10 μM is indicated as a “B′” and an IC50 value of greater than or equal to 10 μM is indicated as a “C.”
Additional benzimidazole-based compounds as described herein were measured for activity according to the procedure outlined in Example 2. Briefly, using a fluorescence-based sEH biochemical inhibition assay, the IC50 value was measured for each benzimidazole-based compound.

Consider `Fc1cc2nc(-c3ccc(-c4nnco4)cc3)[nH]c2cc1F` [Compound 58, 2-(4-(5,6-difluoro-1H-benzo[d]imidazol-2-yl)phenyl)-1,3,4-oxadiazole], for which the IC50 is not below 10 µM. Next, `FC(F)(F)c1ccc(-c2nc3cc(Br)c(Br)cc3[nH]2)cc1` [Compound 38, 5,6-dibromo-2-(4-(trifluoromethyl)phenyl)-1H-benzo[d]imidazole]: not below 10 µM. Then `CCc1ccc(-c2nc3cc(Br)c(Br)cc3[nH]2)cc1` [Compound 39, 5,6-dibromo-2-(4-ethylphenyl)-1H-benzo[d]imidazole], with 1 to 10 µM.

As to `Fc1cc2nc(-c3ccc(-c4nnn[nH]4)cc3)[nH]c2cc1F` [Compound 61, 2-(4-(1H-tetrazol-5-yl)phenyl)-5,6-difluoro-1H-benzo[d]imidazole], the IC50 was not below 10 µM. Regarding `Cc1cc2nc(-c3ccnn3C)[nH]c2cc1C` [Compound 31, 5,6-dimethyl-2-(1-methyl-1H-pyrazol-5-yl)-1H-benzo[d]imidazole], the IC50 was not below 10 µM. `Cc1cc2nc(-c3ccc4ccccc4c3)[nH]c2cc1C` [Compound 28, 5,6-dimethyl-2-(naphthalen-2-yl)-1H-benzo[d]imidazole]: the IC50 is not above 1 µM. Then `FC(F)(F)c1ccc(-c2nc3cc(Cl)c(Cl)cc3[nH]2)cc1` [Compound 34, 5,6-dichloro-2-(4-(trifluoromethyl)phenyl)-1H-benzo[d]imidazole], with 1 to 10 µM; and `O=C(Nc1cc(C(F)(F)F)cc(C(F)(F)F)c1)Nc1nc2ccccc2[nH]1` [Compound 14, 1-(1H-benzo[d]imidazol-2-yl)-3-(3,5-bis(trifluoromethyl)phenyl)urea], with not below 10 µM; and `Cc1cc2nc(Oc3ccc(Br)cc3)[nH]c2cc1C` [Compound 11, 2-(4-bromophenoxy)-5,6-dimethyl-1H-benzo[d]imidazole], with not below 10 µM.

`Fc1cc2nc(-c3ccc(C(F)(F)F)cc3)[nH]c2cc1F` [Compound 16, 5,6-difluoro-2-(4-(trifluoromethyl)phenyl)-1H-benzo[d]imidazole] came in with an IC50 not above 1 µM. Next, `Fc1cc2nc(-c3ccc(-c4ccccc4)cc3)[nH]c2cc1Br` [Compound 45, 2-([1,1′-biphenyl]-4-yl)-6-bromo-5-fluoro-1H-benzo[d]imidazole]: not above 1 µM; `O=C(O)c1ccc(-c2nc3cc(F)c(F)cc3[nH]2)cc1` [Compound 56]: not above 1 µM. Next, `CC(=O)Nc1ccc(-c2nc3cc(F)c(F)cc3[nH]2)cc1` [Compound 47, N-(4-(5,6-difluoro-1H-benzo[d]imidazol-2-yl)phenyl)acetamide]: not below 10 µM; `Fc1ccc(Oc2ccc(-c3nc4cc(F)c(F)cc4[nH]3)cc2)cc1` [Compound 52, 5,6-difluoro-2-(4-(4-fluorophenoxy)phenyl)-1H-benzo[d]imidazole]: not above 1 µM; `O=c1[nH]nc(-c2ccc(-c3nc4cc(F)c(F)cc4[nH]3)cc2)o1` [Compound 55, 5-(4-(5,6-difluoro-1H-benzo[d]imidazol-2-yl)phenyl)-1,3,4-oxadiazol-2(3H)-one]: not above 1 µM.

With `Cc1cc2nc(-c3cccc(C(C)(C)C)c3)[nH]c2cc1C` [Compound 27, 2-(3-(tert-butyl)phenyl)-5,6-dimethyl-1H-benzo[d]imidazole], the IC50 is not above 1 µM.

Regarding `COc1cc2nc(-c3ccc(C(F)(F)F)cc3)[nH]c2cc1OC` [Compound 42, 5,6-dimethoxy-2-(4-(trifluoromethyl)phenyl)-1H-benzo[d]imidazole], the half-inhibitory concentration (IC50) was in the range of 1 to 10 µM.

Turning to `Fc1cc2nc(-c3ccnc(C(F)(F)F)c3)[nH]c2cc1F` [Compound 50, 5,6-difluoro-2-(2-(trifluoromethyl)pyridin-4-yl)-1H-benzo[d]imidazole], the IC50 is 1 to 10 µM. Regarding `C[C@H](N)c1nc2cc(F)c(F)cc2[nH]1` [Compound 2, (S)-1-(5,6-difluoro-1λ^2-benzo[d]imidazol-2-yl)ethan-1-amine], the 50% inhibitory concentration (IC50) is not below 10 µM.

One may read the IC50 as the concentration needed to halve the response being measured. A higher IC50 goes with lower potency.

The values above are taken from patent publication US20230192626A1 (Baylor College of Medicine, priority 2020, published 2023).
